According to US8496945B2, “Nanoparticle delivery systems for membrane-integrating peptides” (priority 2007, dated 2013):
Where “and” joins values, the source holds several entries; their conditions need not be identical. Equal values may be shown once.

How the values were obtained:
[1] = tested on: cholesterol-depleted C-32 Melanoma cells; assay: Effect of cholesterol depletion on cell death (MTT assay); format: cell-based; conditions: 0.25 mM and 0.5 mM, no melittin
Protocol: (§1) C-32 melanoma cells were seeded in 96-well plates at a seeding density of 5,000 cells/well. After overnight incubation at 37° C., the cells were treated with free melittin, αvβ3-targeted or nontargeted melittin nanoparticles at various concentrations. At the end of 3 hours of incubation at 37° C., the cells were washed three times with PBS and incubated at 37° C. for a period of 72 hours. Then the medium was aspirated, and the cells rinsed with phosphate buffered saline (PBS) and 20 μl MTT solution (Sigma-Aldrich, St. Louis, Mo., final concentration 5 mg/ml in PBS) was added to each well. Cells were further incubated at 37° C. for 30 min, solubilized in 200 μl DMSO to dissolve the precipitated formazan and the absorbance read on a microplate reader (Biorad, Model 550) at 570 nm. Background absorbencies were subtracted and untreated control cells were set at 100% viability.
The role of cholesterol in modulating the melittin activity on the cell membrane was assessed by depleting cells of cholesterol before the cell proliferation assay and flow cytometry (as described above). […] To quantify the amount of cholesterol depleted by methyl beta cyclodextrin, total lipids were extracted from melanoma cells by standard procedure. […] The total cholesterol content in the cells was determined by using the Amplex® Red Cholesterol Assay kit (Sigma, St. Louis, Mo.). […]

[2] = tested on: C-32 melanoma cells; assay: Cholesterol depletion, Amplex Red Cholesterol Assay; format: cell-based; conditions: 15 min at 37° C.
Protocol: The role of cholesterol in modulating the melittin activity on the cell membrane was assessed by depleting cells of cholesterol before the cell proliferation assay and flow cytometry (as described above). C-32 Melanoma cells were treated with either 0.25 mM or 0.5 mM methyl beta cyclodextrin (Sigma, St. Louis, Mo.) for 15 min at 37° C. to deplete cholesterol. To quantify the amount of cholesterol depleted by methyl beta cyclodextrin, total lipids were extracted from melanoma cells by standard procedure. Briefly, 10^6 C-32 melanoma cells grown in 6-well tissue culture plates were scraped by a rubber policeman and the pellet obtained post-centrifugation was treated with 200 μl chloroform-methanol (2:1). After spinning top speed in a microcentrifuge, the organic phase was collected and vacuum dried. The dried lipids were then dissolved in 20 μl of 2-propanol containing 10% triton-X 100 as assay samples. The total cholesterol content in the cells was determined by using the Amplex® Red Cholesterol Assay kit (Sigma, St. Louis, Mo.). Cholesterol standard was used for calibration as per manufacturer's recommendations.

[3] = tested on: C-32 melanoma cells; assay: Lactate dehydrogenase release assay; format: cell-based; conditions: 1 hour at 37° C., 0.1% triton-X 100 = 100%
Protocol: Lactate dehydrogenase (LDH) is a stable enzyme that is rapidly released from the cells upon plasma membrane damage. The lactate dehydrogenase release assay kit was obtained from BioVision (Mountain View, Calif.) and the assay performed according to manufacturers instructions. Briefly, C-32 melanoma cells were either treated with free melittin or melittin-nanoparticles at various concentrations for 1 hour at 37° C. and the amount of lactate dehydrogenase released quantified. Cells treated with 0.1% triton-X 100 were taken as 100% release.

[4] = tested on: C-32 melanoma cells; assay: Cytochrome c release assay; format: cell-based
Protocol: Cytochrome c is a water-soluble 15 kDa protein residing in the mitochondrial intermembrane space and is released early during apoptosis. To determine if melittin-loaded nanodroplets trigger release of cytochrome c, C-32 melanoma cells were treated with varying concentrations of melittin-nanoparticles for 1 hour at 37° C. following which the mitochondria were isolated by using the Mitochondrial Isolation Kit (Pierce Biotechnology, Rockford, Ill.). The cytochrome c present in the mitochondrial and cytosol fractions thus obtained was assayed by using the cytochrome c ELISA kit (Invitrogen, Carlsbad, Calif.).

[5] = tested on: C-32 melanoma cells; assay: Cell proliferation inhibition (MTT) assay; format: cell-based; conditions: 3 hours treatment, then 72 hours
Protocol: The effect of αvβ3-targeted melittin-nanoparticles on C-32 cancer cell proliferation was determined by the 3-[4,5-dimethylthiazol-2-yl]2,5-diphenyltetrazolium bromide (MTT) assay. The assay measures the activity of a mitochondrial enzyme that converts MTT, a tetrazolium salt, into a formazan crystal that absorbs at 570 nm.
as §1

[6] = tested on: red cells; assay: Hemolysis assay; format: cell-based, Human; conditions: 5×10^7 red cells, 37° C., 3 hours; read-out: IC50 (concentration that causes 50% hemolysis)
Protocol: Human umbilical cord blood was obtained from healthy donors after informed consent. The red cells were separated by centrifugation at 200 g for 10 min and resuspended in normal saline. Various concentrations of melittin or melittin-carrying nanoparticles were added to a fixed number of red cells (5×10^7 cells) and incubated at 37° C. for 3 hours. The release of hemoglobin was quantified by measuring the absorbance at 540 nm of the supernatant in a Microplate Reader (Model 550, BioRad) after centrifugation. The absorbance of the supernatant obtained by incubating the red cells in water under identical conditions was set to 100%.

[7] = Surface plasmon resonance kinetics of melittin insertion in lipid monolayers (Biacore L1 chip); format: binding; conditions: melittin 15 to 1,000 nM
Protocol: The kinetics of melittin insertion in lipid monolayers of perfluorocarbon nanoparticles was studied by surface plasmon resonance (SPR). SPR detects change in the reflective index of a surface. Biacore-X biosensor and carboxy methylated dextran chip L1 were obtained from Biacore, Inc (Piscataway, N.J.). All solutions were degassed and filtered through a 0.22 μm membrane as recommended. A uniform lipid monolayer on an L1 chip was created by injecting 35 μl PFOB nanoparticles (3 μl/min). Loosely deposited nanoparticles were removed by first increasing the flow rate to […] for 2 min followed by an injection of NaOH (50 μl, 10 mM) to ensure a stable baseline. Complete coverage was confirmed by injecting the negative control bovine serum albumin (25 μl, […] in PBS). Melittin in various concentrations was then injected at a flow rate of 30 μl/min (30 μl in PBS; 15 nM to 1000 nM) and the response recorded for 60 minutes. At the end of each experiment the chip was regenerated by two consecutive injections of 3-[(3-cholamidopropyl)dimethylammonio]-1-propanesulfonate (CHAPS) (50 μl, 100 μl/min). A series of sensorgrams was generated for the selected melittin concentrations. The data were analyzed globally by simultaneously fitting the peptide sensorgrams obtained at various concentrations using the BIAevaluation™ software (Biacore, Inc, Piscataway, N.J.). […]

Compound | cell proliferation [1] | depletion of cholesterol ([2]; 0.25 mM) [%] | depletion of cholesterol ([2]; 0.5 mM) [%] | LDH release ([3]; 1 μM) | LDH release ([3]; 5 μM) | release of cytochrome c from the mitochondria ([4]; 1 hour at 37° C., varying concentrations) | cytochrome c release ([4]; at the higher concentrations) [%] | IC50 [5] [nM] | IC50 [6] [nM] | association rate constant (ka) [7]
methyl beta cyclodextrin | no change in cell proliferation | 7 | 12 | – | – | – | – | – | – | –
CC[C@H](C)[C@H](NC(=O)CN)C(=O)NCC(=O)N[C@@H](C)C(=O)N[C@H](C(=O)N[C@@H](CC(C)C)C(=O)N[C@@H](CCCCN)C(=O)N[C@H](C(=O)N[C@@H](CC(C)C)C(=O)N[C@H](C(=O)N[C@H](C(=O)NCC(=O)N[C@@H](CC(C)C)C(=O)N1CCC[C@H]1C(=O)N[C@@H](C)C(=O)N[C@@H](CC(C)C)C(=O)N[C@H](C(=O)N[C@@H](CO)C(=O)N[C@@H](Cc1c[nH]c2ccccc12)C(=O)N[C@H](C(=O)N[C@@H](CCCCN)C(=O)N[C@@H](CCCNC(=N)N)C(=O)N[C@@H](CCCCN)C(=O)N[C@@H](CCCNC(=N)N)C(=O)N[C@@H](CCC(N)=O)C(=O)N[C@@H](CCC(N)=O)C(N)=O)[C@@H](C)CC)[C@@H](C)CC)[C@@H](C)O)[C@@H](C)O)C(C)C)C(C)C [free melittin, melittin] | – | – | – | 19.17 (±4.2) percent | 68.14 (±7.1) percent and 68.14±4.3% | dose-dependent release | 55.48±6.1 | 930 ± 80 | 510 ± 120 | 4.5±0.35×10^6 (Ms)^−1
